In data set [1] the test system is human lymphoma cells (Raji). Nature of the data set: Apoptosis, annexin-V/PI flow cytometry. It counts as cell-based. The conditions noted are these: for apoptotic cells: 30 μM in combination with 100 ng/ml rapamycin; for apoptosis: 30 μM. An excerpt: Because the mTOR pathway plays an important role in promoting cellular nutrient metabolism and cell growth, and function to enhance cell survival downstream of the P13K/Akt pathway, the present inventors postulated that a simultaneous inhibition of mTOR and glycolysis, which serve as a major metabolic pathway for ATP generation in cancer cells, would severely impact cellular energy metabolism and have a potent cytotoxic effect against malignant cells. To test this possibility, rapamycin was used as an agent to inhibit mTOR, and glycolycin (3-bromo-2-oxopropionate, abbreviated herein as 3-BrOP) to inhibit glycolysis.
(§1) Cell growth inhibition was determined by direct counting of the cells after they were treated with rapamycin, 3-BrOP, or their combination. A Coulter Z2 Particle Count & Size Analyzer was used to determine cell counts at 24 h, 48 h, and 72 h after drug incubation. Apoptosis was measured by flow cytometric analysis of cells stained with annexin V-FITC and propidium iodide (PI). Cells were treated with the indicated compounds under various incubation conditions as described in the figure legends. The samples were collected, washed with cold PBS, and then suspended in annexin-V binding buffer. The cells were stained with annexin V-FITC for 15 min at room temperature, washed, and then stained with PI. The samples were analyzed using a FACSCalibur flow cytometer equipped with CELLQuestPro software (Becton-Dickinson, San Jose, Calif.).
Background: In flow cytometry, cells or beads pass a laser one at a time.

The test system of data set [2] is Raji cells. Nature of the data set: Cell growth by direct cell counting (Coulter Z2). It counts as cell-based, human. Here is the method: A different assay was then used to further confirm the synergy between rapamycin and 3-BrOP. Raji cells were treated with 30 μM 3-BrOP, 100 ng/ml rapamycin, or their combination, and the numbers of cells were directly counted for consecutive 3 days, using a Coulter Z2 Particle Count & Size Analyzer.
as §1

For data set [3], the system named is Raji cells. Nature of the data set: Cellular glucose uptake, [3H]-2-deoxyglucose. The data set is classed as cell-based, human. As to conditions: 2 h. The protocol:
After the samples were washed three times with cold PBS, the radioactivity in the cell pellets was quantified by liquid scintillation counting. […] Intracellular nucleotides were extracted from the cells with 0.4 N of perchloric acid (PCA) for 10 min in ice-bath, neutralization with concentrated KOH to pH 7.0, and analyzed by HPLC analysis as described previously (Xu et al., 2005; Seymour et al., 1996). The intracellular ATP contents were calculated using the ATP standard curve generated under identical HPLC conditions, and normalized by equal cell number. The relative cellular ATP levels were expressed as percent of the control cells.

For data set [4] the following is noted: mouse, in vivo.

The inhibition is the percentage by which the read-out fell short of the control. Take `CCCOC(=O)C(=O)CBr` [Glycolycin, propyl 3-bromo-2-oxopropionate]: the apoptotic cells is recorded as 38% in data set [1] (24 h) and 79% in data set [1] (48 h). For the same compound, the apoptosis is given as 19% in data set [1] (24 h) and 49% in data set [1] (48 h). Also, the “decrease in cell numbers” value in the data set with Raji cells [2] (30 μM alone, up to 72 h) is on record as about 35%. Besides, the cell growth result in the data set on Raji cells [2] (30 μM in combination with 100 ng/ml rapamycin) is recorded as “almost complete inhibition of cell growth”. The results for the “decrease of glucose uptake” value in the data set on Raji cells [3] (30 μM) and in the data set with Raji cells [3] (50 μM) were 33% and 71%, respectively. For the same compound, in the data set on Raji cells [3] (Homo sapiens, Raji, 30 μM, in the presence of rapamycin (100 ng/ml, 18 h pre-treatment)), the inhibition at 30 µM worked out at 70%. In addition, the inhibition at 50 µM in the data set with Raji cells [3] (Homo sapiens, Raji, 50 μM, combination with 100 ng/ml of rapamycin (18 h pre-treatment)) amounted to 94%. The toxicity in mice entry in data set [4] is “No obvious toxicity”. In addition, the “toxicity in animals, such as mice” value in data set [4] (5 mg/kg) was “no apparent toxicity”.

The record behind these values is US20060058383A1 (priority 2004, published 2006).
